System: Bifidobacterium sp. strain JCM7042
Assay: L-cysteine concentration in MRS liquid medium, production of 7-cis-hexadecenoic acid
Format: cell-based
Conditions: 5.0 g/L in MRS liquid medium
Protocol: MRS media with various amounts of L-cysteine added were prepared to investigate their effect on the production of 7-cis-hexadecenoic acid by bifidobacteria. Specifically, the test was performed as follows. Bifidobacterium sp. strain JCM7042 (strain JCM7042) was used as the Bifidobacterium. L-cysteine hydrochloride monohydrate was added at 0.001 g/L, 0.01 g/L, 0.1 g/L, 0.5 g/L, 1.0 g/L, and 5.0 g/L to the MRS liquid medium with the composition shown in Table 1 to prepare L-cysteine-containing MRS liquid media. These MRS liquid media with L-cysteine and the control MRS liquid medium (without added L-cysteine) were cultured in the same manner as in Example 1. Using the same methods and conditions as in Example 1, the 7-cis-hexadecenoic acid in each culture solution was quantified by gas chromatography (GC) analysis.

Compound	production of 7-cis-hexadecenoic acid
Cl.N[C@@H](CS)C(=O)O.O [L-Cysteine Hydrochloride (1-hydrate)]	greatly inhibited

System: Staphylococcus aureus
Assay: not given
Conditions: 7-cis-hexadecenoic acid itself; cited from earlier work

Compound	MIC against Staphylococcus aureus
CCCCCCCC/C=C\CCCCCC(=O)O [7-cis-hexadecenoic acid]	about 3 μg/mL

System: Staphylococcus epidermidis
Assay: not given
Conditions: reported in Non Patent Literature 1; cited from earlier work

Compound	antibacterial activity against Staphylococcus epidermidis
CCCCCCCCC/C=C\CCCCC(=O)O [sapienic acid]	not against Staphylococcus epidermidis

System: Staphylococcus aureus
Assay: not given
Conditions: reported in Non Patent Literature 1; cited from earlier work

Compound	selective antibacterial activity (S. aureus versus S. epidermidis)	antibacterial activity against Staphylococcus aureus
CCCCCCCC/C=C\CCCCCC(=O)O [7-cis-hexadecenoic acid]	selective antibacterial activity similar to sapienic acid	
CCCCCC/C=C\CCCCCCCC(=O)O [palmitoleic acid]	selective antibacterial activity similar to sapienic acid	
CCCCCCCCC/C=C\CCCCC(=O)O [sapienic acid]		strong antibacterial activity

System: Bifidobacterium sp. strain JCM7042
Assay: Effect of components added to TOS liquid medium on bifidobacteria growth and 7-cis-C16:1 production
Format: cell-based
Conditions: component added to TOS liquid medium, amount per liter (0.1 to 10 g); compared to control without the component; 37° C.

Compound	7-cis-C16:1 Production	Bifidobacteria Growth
O=C([O-])[O-].[Ca+2] [Calcium Carbonate]	Fair	Excellent
Cl.N[C@@H](CS)C(=O)O.O [L-Cysteine Hydrochloride (1-hydrate)]	Excellent	Excellent
CCCCCCCCCCCC(=O)O [Lauric Acid (free form), Lauric Acid]	Poor	Poor
CCCCCCCCCCCC(=O)OC [Lauric Acid Methyl Ester]	Good	Good
CCCCCCCCCCCCCC(=O)O [Myristic Acid (free form), Myristic Acid]	Poor	Poor
CCCCCCCCCCCCCC(=O)OC [Myristic Acid Methyl Ester]	Poor	Poor
CCCCCCCC/C=C\CCCCCCCC(=O)O [Oleic Acid (free form), Oleic Acid]	Poor	Fair
CCCCCCCC/C=C\CCCCCCCC(=O)OC [Oleic Acid Methyl Ester]	Good	Excellent
O=C(O)CC(=O)C(=O)O [Oxaloacetic Acid]	Poor	Good
CCCCCCCCCCCCCCCC(=O)O [Palmitic Acid (free form), Palmitic Acid]	Poor	Poor
CCCCCCCCCCCCCCCC(=O)OC [Palmitic Acid Methyl Ester]	Poor	Poor
O=C([O-])[O-].[K+].[K+] [Potassium Carbonate]	Poor	Poor
O=C([O-])O.[K+] [Potassium Hydrogen Carbonate]	Fair	Poor
O=C([O-])[O-].[Na+].[Na+] [Sodium Carbonate]	Poor	Poor
O=C([O-])O.[Na+] [Sodium Hydrogen Carbonate]	Poor	Poor
Anisidine	Good	Good
Polysorbate 80	Poor	Good
Tergitol NP40	Good	Good
Triton X-100	Poor	Poor

Reference: US20230383320A1, “METHOD FOR PRODUCING MONOUNSATURATED FATTY ACID HAVING 16 CARBON ATOMS” (SHIZUOKA PREFECTURAL UNIVERSITY CORPORATION, priority 2022, published 2023)
